The text below walks through data of patent US11623919B2, “Heterocyclic P2X7 antagonists” (AXXAM S.P.A., priority 2017, dated 2023).

Test in all cases: Screen Quest Fluo-8 No Wash Calcium Assay (Bz-ATP evoked Ca2+ influx, FLIPR)
What all share (type): cell-based

Experiment [1] concerns the target T1, P2X7 receptor (Rattus norvegicus, UniProt Q64663).
T1 construct: rP2X7 (IC50; nM); other: rP2X7; HEK-293 cells stably transfected with P2X7 receptor, Bz-ATP at EC80, Fluo-8 NW; potency
T1 sequence (Q64663 1-595): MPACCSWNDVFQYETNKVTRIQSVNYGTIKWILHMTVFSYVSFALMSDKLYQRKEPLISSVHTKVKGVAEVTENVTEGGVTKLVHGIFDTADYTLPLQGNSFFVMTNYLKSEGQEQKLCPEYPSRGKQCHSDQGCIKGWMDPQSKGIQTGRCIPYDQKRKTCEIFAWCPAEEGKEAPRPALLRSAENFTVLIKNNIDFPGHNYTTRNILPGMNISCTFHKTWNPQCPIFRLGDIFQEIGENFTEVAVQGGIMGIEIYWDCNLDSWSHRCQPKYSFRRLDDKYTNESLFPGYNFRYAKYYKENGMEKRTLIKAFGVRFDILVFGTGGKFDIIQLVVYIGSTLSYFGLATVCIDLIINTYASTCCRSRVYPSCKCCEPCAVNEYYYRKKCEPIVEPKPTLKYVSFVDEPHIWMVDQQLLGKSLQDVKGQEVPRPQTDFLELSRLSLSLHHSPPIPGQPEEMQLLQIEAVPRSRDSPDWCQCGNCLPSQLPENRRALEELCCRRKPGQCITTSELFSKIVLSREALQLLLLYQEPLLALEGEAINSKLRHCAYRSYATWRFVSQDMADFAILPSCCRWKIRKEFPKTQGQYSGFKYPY
Conditions: rP2X7; HEK-293 cells stably transfected with P2X7 receptor, Bz-ATP at EC80, Fluo-8 NW; potency ranges A-D. The gist of the method: (§1)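 HEK-293 cells stably expressing P2X7 were loaded with Fluo-8 NW for 1 h at RT, then given compound, and 5 min later Bz-ATP at EC80. Fluorescence was read by FLIPR in low divalent cation buffer (0.3 mM Ca2+, 0 mM Mg2+). IC50 came from percent inhibition relative to reference antagonist A438079.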

The target in experiment [2] is T2, P2X7 receptor (Mus musculus, UniProt Q9Z1M0).
T2 construct: mP2X7 (IC50; nM); other: mP2X7; HEK-293 cells stably transfected with P2X7 receptor, Bz-ATP at EC80, Fluo-8 NW; potency
T2 sequence (Q9Z1M0 1-595): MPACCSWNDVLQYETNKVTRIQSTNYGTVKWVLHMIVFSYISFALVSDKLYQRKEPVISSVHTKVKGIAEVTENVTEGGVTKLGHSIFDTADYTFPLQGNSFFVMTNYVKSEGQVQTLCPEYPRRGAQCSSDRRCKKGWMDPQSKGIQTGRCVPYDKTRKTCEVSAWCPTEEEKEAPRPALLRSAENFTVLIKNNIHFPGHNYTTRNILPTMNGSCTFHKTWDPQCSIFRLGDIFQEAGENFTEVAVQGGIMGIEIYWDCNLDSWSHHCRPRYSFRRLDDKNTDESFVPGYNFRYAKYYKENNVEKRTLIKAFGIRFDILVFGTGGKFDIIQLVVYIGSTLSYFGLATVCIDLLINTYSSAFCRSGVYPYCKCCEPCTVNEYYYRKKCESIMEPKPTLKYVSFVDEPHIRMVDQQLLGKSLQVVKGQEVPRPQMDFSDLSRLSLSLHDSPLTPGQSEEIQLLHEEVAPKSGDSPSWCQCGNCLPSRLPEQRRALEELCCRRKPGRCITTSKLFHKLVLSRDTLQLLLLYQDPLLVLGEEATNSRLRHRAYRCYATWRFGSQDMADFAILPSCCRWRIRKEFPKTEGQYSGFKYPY
Conditions: mP2X7; HEK-293 cells stably transfected with P2X7 receptor, Bz-ATP at EC80, Fluo-8 NW; potency ranges A-D. A digest of the protocol:
as §1

Experiment [3] has as its target T3, P2X7 receptor (Homo sapiens, UniProt Q99572).
T3 sequence (Q99572 1-595): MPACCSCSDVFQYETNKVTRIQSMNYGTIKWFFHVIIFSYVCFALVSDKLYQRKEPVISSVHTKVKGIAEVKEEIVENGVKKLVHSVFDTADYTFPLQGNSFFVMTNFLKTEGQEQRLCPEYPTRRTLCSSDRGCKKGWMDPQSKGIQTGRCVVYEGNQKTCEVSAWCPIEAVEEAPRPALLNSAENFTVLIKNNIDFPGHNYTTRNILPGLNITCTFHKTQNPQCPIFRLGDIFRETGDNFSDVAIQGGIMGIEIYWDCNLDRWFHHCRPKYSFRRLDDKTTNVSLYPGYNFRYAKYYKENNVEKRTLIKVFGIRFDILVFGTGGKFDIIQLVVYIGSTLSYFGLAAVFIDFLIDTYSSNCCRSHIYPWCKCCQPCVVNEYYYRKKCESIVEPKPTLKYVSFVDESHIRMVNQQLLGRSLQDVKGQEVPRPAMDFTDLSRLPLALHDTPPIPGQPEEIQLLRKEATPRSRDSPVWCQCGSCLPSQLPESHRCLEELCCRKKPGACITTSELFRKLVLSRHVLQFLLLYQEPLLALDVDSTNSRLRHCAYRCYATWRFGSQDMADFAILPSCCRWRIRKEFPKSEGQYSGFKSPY
On the set-up: hP2X7 (IC50; nM); other: hP2X7; HEK-293 cells stably transfected with P2X7 receptor, Bz-ATP at EC80, Fluo-8 NW; potency. Conditions: hP2X7; HEK-293 cells stably transfected with P2X7 receptor, Bz-ATP at EC80, Fluo-8 NW; potency ranges A-D. The gist of the method: as §1

For orientation: IC50 means the concentration that gives 50% inhibition. In the case of `O=c1onc(CC2CCC(F)(F)CC2)n1CCc1ccccc1` [Example 172, 3-[(4,4-difluorocyclohexyl)methyl]-4-(2-phenylethyl)-4,5-dihydro-1,2,4-oxadiazol-5-one], the 50% inhibitory concentration (IC50) is 1000 to 10000 nM in experiment [1], greater than 10000 nM in experiment [2] and greater than 10000 nM in experiment [3].
Regarding `O=c1onc(Cc2c(F)cccc2Cl)n1Cc1ncco1` [Example 32, 3-[(2-chloro-6-fluorophenyl)methyl]-4-(1,3-oxazol-2-ylmethyl)-4,5-dihydro-1,2,4-oxadiazol-5-one], the IC50 in experiment [1], in experiment [2] and in experiment [3] was greater than 10000 nM throughout.
`O=c1onc(Cc2cccc(C(F)(F)F)c2Cl)n1Cc1ccc(F)cc1` [Example 72, 3-{[2-chloro-3-(trifluoromethyl)phenyl]methyl}-4-[(4-fluorophenyl)methyl]-4,5-dihydro-1,2,4-oxadiazol-5-one]: the IC50 in experiment [1], in experiment [2] and in experiment [3] was greater than 10000 nM each time.
Take `O=c1onc(Cc2ccc(F)cc2)n1Cc1ccc(F)cc1` [Example 54, bis[(4-fluorophenyl)methyl]-4,5-dihydro-1,2,4-oxadiazol-5-one]: the IC50 in experiment [1] is greater than 10000 nM; in experiment [2], greater than 10000 nM; in experiment [3], 1000 to 10000 nM.
For `O=c1onc(Cc2c(F)cccc2Cl)n1CCN1CCC(F)(F)CC1` [Example 181, 3-[(2-chloro-6-fluorophenyl)methyl]-4-[2-(4,4-difluoropiperidin-1-yl)ethyl]-4,5-dihydro-1,2,4-oxadiazol-5-one], the figures for the IC50 in experiment [1], in experiment [2] and in experiment [3] were 1000 to 10000 nM, 1000 to 10000 nM and 200 to 1000 nM, respectively.
On to `O=c1onc(Cc2c(F)cccc2Cl)n1Cc1nccs1` [Example 34, 3-[(2-chloro-6-fluorophenyl)methyl]-4-(1,3-thiazol-2-ylmethyl)-4,5-dihydro-1,2,4-oxadiazol-5-one], for which the IC50 in experiment [1], in experiment [2] and in experiment [3] was greater than 10000 nM in each case.
On to `O=c1onc(CC2CCC(F)(F)CC2)n1CC1CCCCC1` [Example 133, 4-(cyclohexylmethyl)-3-[(4,4-difluorocyclohexyl)methyl]-4,5-dihydro-1,2,4-oxadiazol-5-one], for which the IC50 in experiment [1] was 1000 to 10000 nM; in experiment [2] it was greater than 10000 nM; in experiment [3] it was 1000 to 10000 nM.
Regarding `CC(C)Cn1c(Cc2c(F)cccc2Cl)noc1=O` [Example 178, 3-[(2-chloro-6-fluorophenyl)methyl]-4-(2-methylpropyl)-4,5-dihydro-1,2,4-oxadiazol-5-one], the results for the IC50 in experiment [1], in experiment [2] and in experiment [3] were greater than 10000 nM, greater than 10000 nM and 1000 to 10000 nM, respectively.
Regarding `O=c1onc(Cc2c(F)cccc2Cl)n1Cc1cnco1` [Example 40, 3-[(2-chloro-6-fluorophenyl)methyl]-4-(1,3-oxazol-5-ylmethyl)-4,5-dihydro-1,2,4-oxadiazol-5-one], the IC50 in experiment [1], in experiment [2] and in experiment [3] was greater than 10000 nM each time.
`Cc1ncsc1Cn1c(Cc2c(F)cccc2Cl)noc1=O` [Example 31, 3-[(2-chloro-6-fluorophenyl)methyl]-4-[(4-methyl-1,3-thiazol-5-yl)methyl]-4,5-dihydro-1,2,4-oxadiazol-5-one]: the IC50 in experiment [1] is greater than 10000 nM; in experiment [2], greater than 10000 nM; in experiment [3], 1000 to 10000 nM.
With `O=c1onc(Cc2c(F)cccc2Cl)n1CC1CCC2(CC1)OCCO2` [Example 70, 3-[(2-chloro-6-fluorophenyl)methyl]-4-{1,4-dioxaspiro[4.5]decan-8-ylmethyl}-4,5-dihydro-1,2,4-oxadiazol-5-one], the IC50 in experiment [1] was 1000 to 10000 nM; in experiment [2] it was 1000 to 10000 nM; in experiment [3], 200 to 1000 nM.
Take `O=c1onc(Cc2cccc(Cl)c2Cl)n1Cc1c(F)cccc1Cl` [Example 13, 4-[(2-chloro-6-fluorophenyl)methyl]-3-[(2,3-dichlorophenyl)methyl]-4,5-dihydro-1,2,4-oxadiazol-5-one]: the IC50 in experiment [1], in experiment [2] and in experiment [3] was 1000 to 10000 nM in each case.
Regarding `COc1ccc(Cn2c(Cc3ccc(F)cc3)noc2=O)c(OC)c1` [Example 2, 4-[(2,4-dimethoxyphenyl)methyl]-3-[(4-fluorophenyl)methyl]-4,5-dihydro-1,2,4-oxadiazol-5-one], the figures for the IC50 in experiment [1], in experiment [2] and in experiment [3] were greater than 10000 nM, greater than 10000 nM and 1000 to 10000 nM, respectively.
For the molecule `Cc1ncccc1Cc1noc(=O)n1CC1CCC(F)(F)CC1` [Example 219, 4-[(4,4-difluorocyclohexyl)methyl]-3-[(2-methylpyridin-3-yl)methyl]-4,5-dihydro-1,2,4-oxadiazol-5-one], the values for the IC50 in experiment [1], in experiment [2] and in experiment [3] were 1000 to 10000 nM, 1000 to 10000 nM and 200 to 1000 nM, respectively.
Take `O=c1onc(Cc2ccc(F)cc2F)n1CC1CCC(F)(F)CC1` [Example 153, 4-[(4,4-difluorocyclohexyl)methyl]-3-[(2,4-difluorophenyl)methyl]-4,5-dihydro-1,2,4-oxadiazol-5-one]: the values for the IC50 in experiment [1], in experiment [2] and in experiment [3] were less than 200 nM, 200 to 1000 nM and less than 200 nM, respectively.
As to `O=c1onc(Cc2c(F)cccc2Cl)n1Cc1cccnc1` [Example 42, 3-[(2-chloro-6-fluorophenyl)methyl]-4-(pyridin-3-ylmethyl)-4,5-dihydro-1,2,4-oxadiazol-5-one], the IC50 in experiment [1], in experiment [2] and in experiment [3] was greater than 10000 nM throughout.
Turning to `COc1ccccc1Cn1c(Cc2c(F)cccc2Cl)noc1=O` [Example 28, 3-[(2-chloro-6-fluorophenyl)methyl]-4-[(2-methoxyphenyl)methyl]-4,5-dihydro-1,2,4-oxadiazol-5-one], the values for the IC50 in experiment [1], in experiment [2] and in experiment [3] were greater than 10000 nM, 1000 to 10000 nM and 1000 to 10000 nM, respectively.
For the molecule `O=c1onc(C(O)c2cccc(Cl)c2Cl)n1Cc1c(F)cccc1Cl` (stereo not drawn) [Example 138, 4-[(2-chloro-6-fluorophenyl)methyl]-3-[(2,3-dichlorophenyl)(hydroxy)methyl]-4,5-dihydro-1,2,4-oxadiazol-5-one], the IC50 in experiment [1], in experiment [2] and in experiment [3] was 1000 to 10000 nM each time.
In the case of `Cn1c(Cc2c(F)cccc2Cl)noc1=O` [Example 174, 3-[(2-chloro-6-fluorophenyl)methyl]-4-methyl-4,5-dihydro-1,2,4-oxadiazol-5-one], the 50% inhibitory concentration (IC50) in experiment [1], in experiment [2] and in experiment [3] was greater than 10000 nM throughout.
